The values that follow come from US20250255874A1, “Methods for Treating Immune Thrombocytopenia By Administering (R)-2-[3-[4-Amino-3-(2-Fluoro-4-Phenoxy-Phenyl)Pyrazolo[3,4-D]Pyrimidin-1-YL]Piperidine-1-Carbonyl]-4-Methyl-4-[4-(Oxetan-3-YL)Piperazin-1-YL]Pent-2-Enentrile” (Principia Biopharma Inc., priority 2022, published 2025).

SMILES strings stand for the structures.

The subject of test [1] is spontaneous canine pemphigus foliaceus. The experiment in a line: spontaneous canine pemphigus foliaceus. The following applies: dog, in vivo.
Test [2] deals with patients with immune thrombocytopenia who initiated 400 mg BID. The experiment in a line: Clinical predictors of response, exploratory analysis of Phase 1/2 study (univariate logistic regression). The format is in vivo, human. From the text:
Clinical predictors were selected based on clinical considerations anticipated to be associated with platelet response and evaluated by univariate logistic regression models. For continuous variables, the t test was used to test for differences, whereas for categorical variables, the Fisher exact test was used. PK exposure at steady-state was estimated based on post hoc analysis from a previously established population PK model.

For `CC(C)(C=C(C#N)C(=O)N1CCC[C@@H](n2nc(-c3ccc(Oc4ccccc4)cc3F)c3c(N)ncnc32)C1)N1CCN(C2COC2)CC1` [rilzabrutinib, (R)-2-[3-[4-amino-3-(2-fluoro-4-phenoxy-phenyl)pyrazolo[3,4-d]pyrimidin-1-yl]piperidine-1-carbonyl]-4-methyl-4-[4-(oxetan-3-yl)piperazin-1-yl]pent-2-enenitrile], the anti-inflammatory effects entry in test [1] is “rapid and significant anti-inflammatory effects”. The “early responders, proportion of patients” value in test [2] (patients who received prior rituximab) was 14%; in test [2] (patients with no prior rituximab) it was 48%. Moreover, the “responders, proportion of patients” value in test [2] (patients with prior rituximab) is 23%; in test [2] (patients without prior TPO-RA) it was 64%; in test [2] (patients without prior rituximab), 57%.
